Values quoted from earlier work in patent US20130172186A1 (priority 2010, published 2013).
Like-named read-outs stand apart in the source and are kept apart here.

What was measured:
[1] = test system: phytoalexins and phenols in potato tubers; details: tubers from treated plants after P. infestans challenge
P. cinnamomi = details: 40 μg/ml phosphonate in culture, 4 days later

In the case of phosphite, the “observed instances in which pathogen growth was arrested at the local hypersensitive cell death sites” value (P. nicotianae; fosetyl-Al (100 μg/ml)- or phosphite (70 μg/ml)-treated tobacco seedlings, in 24 h) is given as 86%.
In the case of `CCO[PH](=O)O` [fosetyl-Al, aluminium tris(o-etyl phosphonate)], the “observed instances in which pathogen growth was arrested at the local hypersensitive cell death sites” value (P. nicotianae; in vivo) is listed as 86%, the “increase of accumulation of phenols vs control tubers” value [1] is listed as “fivefold” and the “increase of accumulation of phytoalexins vs control tubers” value [1] is listed as “approximately tenfold”.
In the case of phosphonate, the “P. cinnamomi growth inhibited” value (P. cinnamomi) is given as “about 70%”.
